Laboratory results as given in PubChem BioAssay AID2060902 (Molecular Pharmacology Branch, DTP, NCI, 2025).

Test system: 485368-065-R3-J5-PDC spheroids with HUVEC/MSC, viability
Assay: Anticancer human tumor 485368-065-R3-J5-PDC patient-derived pancreatic carcinoma cell line growth inhibition [RAS]
Conditions: for IC50: curve of first compound; for viability, T/C: stronger effect = lower value
In short: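 Agents were tested in combination matrices in half-log decrements from a top concentration at or near clinical Cmax (10 microM if undetermined). Targets were multi-cell spheroids of tumour lines plus HUVEC and MSC stromal cells.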
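Also: spheroids exposed to agents for seven days before readout.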

Question: Which results are given for C=CC(=O)N1CCN(c2nc(OCC3CCCN3C)nc3c(F)c(-c4nc(N)cc(C)c4C(F)(F)F)c(Cl)cc23)C(C)C1 (centres undefined) + CCn1c(-c2cccnc2C(C)OC)c2c3cc(ccc31)N1CCOC(CC(NC(=O)C(C(C)C)N(C)C(=O)C3(F)CCN(C(=O)C#CC(C)(C)N(C)C)CC3)C(=O)N3CCCC(N3)C(=O)OCC(C)(C)C2)C1?
Answer: IC50 (second compound 0.000949 µM): > 1000 nM; IC50 (second compound 0.003 µM): > 1000 nM; IC50 (second compound 0.00949 µM): > 1000 nM; IC50 (second compound 0.03 µM): > 1000 nM; IC50 (second compound 0.0949 µM): > 1000 nM; IC50 (second compound 0.3 µM): > 1000 nM; viability, T/C (second compound 0.000949 µM, first compound 0.00316 µM): 113%; viability, T/C (second compound 0.000949 µM, first compound 0.01 µM): 96%; viability, T/C (second compound 0.000949 µM, first compound 0.0316 µM): 102%; viability, T/C (second compound 0.000949 µM, first compound 0.1 µM): 99.8%; viability, T/C (second compound 0.000949 µM, first compound 0.316 µM): 105%; viability, T/C (second compound 0.000949 µM, first compound 1 µM): 97.5%; viability, T/C (second compound 0.003 µM, first compound 0.00316 µM): 110%; viability, T/C (second compound 0.003 µM, first compound 0.01 µM): 99.5%; viability, T/C (second compound 0.003 µM, first compound 0.0316 µM): 107%; viability, T/C (second compound 0.003 µM, first compound 0.1 µM): 101%; viability, T/C (second compound 0.003 µM, first compound 0.316 µM): 119%; viability, T/C (second compound 0.003 µM, first compound 1 µM): 107%; viability, T/C (second compound 0.00949 µM, first compound 0.00316 µM): 95.9%; viability, T/C (second compound 0.00949 µM, first compound 0.01 µM): 104%; viability, T/C (second compound 0.00949 µM, first compound 0.0316 µM): 97.1%; viability, T/C (second compound 0.00949 µM, first compound 0.1 µM): 103%; viability, T/C (second compound 0.00949 µM, first compound 0.316 µM): 110%; viability, T/C (second compound 0.00949 µM, first compound 1 µM): 104%; viability, T/C (second compound 0.03 µM, first compound 0.00316 µM): 87.6%; viability, T/C (second compound 0.03 µM, first compound 0.01 µM): 99.6%; viability, T/C (second compound 0.03 µM, first compound 0.0316 µM): 97.3%; viability, T/C (second compound 0.03 µM, first compound 0.1 µM): 106%; viability, T/C (second compound 0.03 µM, first compound 0.316 µM): 107%; viability, T/C (second compound 0.03 µM, first compound 1 µM): 108%; viability, T/C (second compound 0.0949 µM, first compound 0.00316 µM): 99.4%; viability, T/C (second compound 0.0949 µM, first compound 0.01 µM): 99.8%; viability, T/C (second compound 0.0949 µM, first compound 0.0316 µM): 108%; viability, T/C (second compound 0.0949 µM, first compound 0.1 µM): 93.9%; viability, T/C (second compound 0.0949 µM, first compound 0.316 µM): 115%; viability, T/C (second compound 0.0949 µM, first compound 1 µM): 93.1%; viability, T/C (second compound 0.3 µM, first compound 0.00316 µM): 96.2%; viability, T/C (second compound 0.3 µM, first compound 0.01 µM): 104%; viability, T/C (second compound 0.3 µM, first compound 0.0316 µM): 95.6%; viability, T/C (second compound 0.3 µM, first compound 0.1 µM): 106%; viability, T/C (second compound 0.3 µM, first compound 0.316 µM): 105%; viability, T/C (second compound 0.3 µM, first compound 1 µM): 94.8%

Question: For CCC(CC)c1cc(NC2CCC(N)C2)n2nccc2n1 (centres undefined) + C#Cc1c(F)ccc2cc(O)cc(-c3ncc4c(N5CC6CCC(C5)N6)nc(OCC56CCCN5CC(F)C6)nc4c3F)c12, which IC50 (second compound 0.0316 µM) is on record?
Answer: The IC50 was 2030 nM.

Question: And the IC50 (second compound 0.1 µM)?
Answer: Its IC50 is 1940 nM.

Question: What about the IC50 (second compound 0.316 µM) of the same compound?
Answer: Its IC50 is 2010 nM.

Question: And the IC50 (second compound 1 µM)?
Answer: Its IC50 is 1980 nM.

Question: And the IC50 (second compound 3.16 µM)?
Answer: Its IC50 is 1830 nM.

Question: And the IC50 (second compound 10 µM)?
Answer: Its IC50 is 1250 nM.

Question: What about the viability, T/C (second compound 0.0316 µM, first compound 0.0316 µM) of the same compound?
Answer: The viability, T/C was 108%.

Question: What about the viability, T/C (second compound 0.0316 µM, first compound 0.1 µM) of the same compound?
Answer: The viability, T/C was 116%.

Question: And the viability, T/C (second compound 0.0316 µM, first compound 0.316 µM)?
Answer: The viability, T/C was 110%.

Question: And the viability, T/C (second compound 0.0316 µM, first compound 1 µM)?
Answer: The viability, T/C was 147%.

Question: And the viability, T/C (second compound 0.0316 µM, first compound 3.16 µM)?
Answer: Its viability, T/C is 4.74%.

Question: What about the viability, T/C (second compound 0.0316 µM, first compound 10 µM) of the same compound?
Answer: Its viability, T/C is 7.01%.

Question: What about the viability, T/C (second compound 0.1 µM, first compound 0.0316 µM) of the same compound?
Answer: Its viability, T/C is 107%.

Question: What about the viability, T/C (second compound 0.1 µM, first compound 0.1 µM) of the same compound?
Answer: Its viability, T/C is 95.8%.

Question: What about the viability, T/C (second compound 0.1 µM, first compound 0.316 µM) of the same compound?
Answer: Its viability, T/C is 109%.

Question: What about the viability, T/C (second compound 0.1 µM, first compound 1 µM) of the same compound?
Answer: Its viability, T/C is 129%.

Question: What about the viability, T/C (second compound 0.1 µM, first compound 3.16 µM) of the same compound?
Answer: The viability, T/C was 4.21%.

Question: What about the viability, T/C (second compound 0.1 µM, first compound 10 µM) of the same compound?
Answer: Its viability, T/C is 7.06%.

Question: What about the viability, T/C (second compound 0.316 µM, first compound 0.0316 µM) of the same compound?
Answer: The viability, T/C was 99.4%.

Question: What about the viability, T/C (second compound 0.316 µM, first compound 0.1 µM) of the same compound?
Answer: The viability, T/C was 105%.

Question: What about the viability, T/C (second compound 0.316 µM, first compound 0.316 µM) of the same compound?
Answer: Its viability, T/C is 114%.

Question: And the viability, T/C (second compound 0.316 µM, first compound 1 µM)?
Answer: Its viability, T/C is 152%.

Question: What about the viability, T/C (second compound 0.316 µM, first compound 3.16 µM) of the same compound?
Answer: Its viability, T/C is 5.79%.

Question: And the viability, T/C (second compound 0.316 µM, first compound 10 µM)?
Answer: Its viability, T/C is 7.25%.

Question: And the viability, T/C (second compound 1 µM, first compound 0.0316 µM)?
Answer: Its viability, T/C is 91.1%.

Question: And the viability, T/C (second compound 1 µM, first compound 0.1 µM)?
Answer: The viability, T/C was 109%.

Question: What about the viability, T/C (second compound 1 µM, first compound 0.316 µM) of the same compound?
Answer: The viability, T/C was 121%.

Question: And the viability, T/C (second compound 1 µM, first compound 1 µM)?
Answer: Its viability, T/C is 138%.

Question: And the viability, T/C (second compound 1 µM, first compound 3.16 µM)?
Answer: The viability, T/C was 4.74%.

Question: And the viability, T/C (second compound 1 µM, first compound 10 µM)?
Answer: Its viability, T/C is 6.22%.

Question: What about the viability, T/C (second compound 3.16 µM, first compound 0.0316 µM) of the same compound?
Answer: Its viability, T/C is 86.7%.

Question: And the viability, T/C (second compound 3.16 µM, first compound 0.1 µM)?
Answer: The viability, T/C was 83.8%.

Question: And the viability, T/C (second compound 3.16 µM, first compound 0.316 µM)?
Answer: Its viability, T/C is 96.9%.

Question: And the viability, T/C (second compound 3.16 µM, first compound 1 µM)?
Answer: Its viability, T/C is 128%.

Question: And the viability, T/C (second compound 3.16 µM, first compound 3.16 µM)?
Answer: Its viability, T/C is 4.66%.

Question: And the viability, T/C (second compound 3.16 µM, first compound 10 µM)?
Answer: Its viability, T/C is 6.53%.

Question: And the viability, T/C (second compound 10 µM, first compound 0.0316 µM)?
Answer: The viability, T/C was 47.2%.

Question: What about the viability, T/C (second compound 10 µM, first compound 0.1 µM) of the same compound?
Answer: The viability, T/C was 42.1%.

Question: What about the viability, T/C (second compound 10 µM, first compound 0.316 µM) of the same compound?
Answer: The viability, T/C was 61.7%.

Question: What about the viability, T/C (second compound 10 µM, first compound 1 µM) of the same compound?
Answer: The viability, T/C was 93.3%.

Question: And the viability, T/C (second compound 10 µM, first compound 3.16 µM)?
Answer: The viability, T/C was 3.14%.

Question: And the viability, T/C (second compound 10 µM, first compound 10 µM)?
Answer: The viability, T/C was 6.12%.
